# From patent US20210330611A1, “THERAPY FOR NEUROLOGICAL DISEASES/DISORDERS” (priority 2020, published 2021)
# pIC50: −log10 of the molar value. Counter-ions that a name gives are not always drawn. Like-named read-outs stand apart in the source and are kept apart here.
# Experiments:
# Type in all cases: cell-based, rat
# [1] = tested on: fibrin-induced microglia activation; test: Image-based assay of fibrin-induced microglia activation (HTS and dose response); details: for inhibition at 10 µM: Rattus norvegicus, Microglia, read-out: Fibrin % inhibition; for pIC50: read-out: Fibrin IC50
# [2] = tested on: LPS-induced microglia activation; test: Image-based assay of LPS-induced microglia activation (HTS and dose response)
# [3] = tested on: fibrin- and LPS-induced microglia activation; test: cells
# [4] = Rattus norvegicus, Microglia, 48 h, read-out: LPS % inhibition
# [5] = primary microglia HTS, fibrin stimulation, cell size >800 μm2 as marker of activation
# [6] = Rattus norvegicus, Microglia, 48 h; read-out: LPS % inhibition
# [7] = classification by fibrin and LPS inhibition in HTS
# [8] = Rattus norvegicus, Microglia, read-out: LPS % inhibition
# [9] = primary microglia HTS, 10 μM, fibrin-stimulated, cell size >800 μm^2 as marker of activation
# [10] = Rattus norvegicus, Microglia, primary microglia HTS, 10 μM, LPS-stimulated, cell size >800 μm^2 as marker of activation; read-out: LPS % inhibition
# [11] = HTS of 1907 compounds, quadrant by fibrin and LPS inhibition
smiles,measurement,setting,value
CCCNCC(O)COc1ccccc1C(=O)CCc1ccccc1 (stereo not drawn) [Propafenone],inhibition at 10 µM,[1],16%
same,inhibition at 10 µM,[2]; [4],21%
same,Quadrant (FIG. 5b),[3],Q4
CN[C@@H](C)[C@@H](O)c1ccccc1 [Pseudoephedrine],inhibition at 10 µM,[1]; [5],-13%
same,inhibition at 10 µM,[2]; [6],5%
same,Quadrant (FIG. 5b),[3]; [7],Q4
Cc1cc(/C=C/c2ccc3cc(N(C)C)ccc3[n+]2C)c(C)n1-c1ccccc1 [Pyrvinium],inhibition at 10 µM,[1],113%
same,inhibition at 10 µM,[2]; [8],115%
same,Quadrant (FIG. 5b),[3],Q2
"CN1CCc2cccc3c2[C@H]1Cc1ccc(O)c(O)c1-3.Cl [R(−)-Apomorphine hydrochloride, reference compound]",Fibrin % inhibition,[1],63%
same,pIC50,"[1]; Table 1, dose response 0.001-20 μM, triplicates, primary rat microglia, 48 h",< 4.70
same,pIC50,[1],< 4.70
same,IC50,[1]; read-out: Fibrin IC50 (uM) (Suppl. Table 7),> 20 µM
same,LPS % inhibition,[2],18%
same,pIC50,"[2]; Table 1; dose response 0.001-20 μM, triplicates, primary rat microglia, 48 h; read-out: LPS IC50",4.85
same,pIC50,[2]; read-out: LPS IC50,4.85
same,IC50,[2]; read-out: LPS IC50 (uM) (Suppl. Table 7),14 µM
same,Cherry-picked Hit (Suppl. Table 7),[3],HIT (key: HIT: Hits were defined as molecules that exhibited greater than 50% inhibition of either fibrin or LPS activation)
same,Hit,[3],HIT (key: HIT: Hits were defined as molecules that exhibited greater than 50% inhibition of either fibrin or LPS activation)
same,Quadrant (FIG. 5b),[3],Q3
same,Quadrant (FIG. 5b),"[3]; Table 1, screen at 10 μM",Q3
CNC(C)C(O)c1ccccc1 (stereo not drawn) [Racephedrine Hydrochloride],inhibition at 10 µM,[1]; [5],-26%
same,inhibition at 10 µM,[2]; [6],17%
same,Quadrant (FIG. 5b),[3]; [7],Q4
Cc1cc2nc3c(=O)[nH]c(=O)nc-3n(C[C@H](O)[C@H](O)[C@H](O)COP(=O)([O-])O)c2cc1C.[Na+] [Riboflavin 5-phosphate Sodium],Fibrin % inhibition,[1]; [5],11%
same,LPS % inhibition,[2],24%
same,Quadrant (FIG. 5b),[3]; [7],Q4
Nc1nc2ccc(OC(F)(F)F)cc2s1 [Riluzole],inhibition at 10 µM,[1],0%
same,inhibition at 10 µM,[2]; [4],7%
same,Quadrant (FIG. 5b),[3],Q4
CN1[C@@H]2C[C@@H](OC(=O)[C@H](CO)c3ccccc3)C[C@H]1[C@@H]1O[C@@H]12 [Scopolamine Hydrobromide],Fibrin % inhibition,[1],5%
same,LPS % inhibition,[2],3%
same,Quadrant (FIG. 5b),[3],Q4
CN1[C@@H]2C[C@@H](OC(=O)[C@H](CO)c3ccccc3)C[C@H]1[C@@H]1O[C@@H]12 [Scopolamine],Fibrin % inhibition,[1],−26%
same,LPS % inhibition,[2],−6%
same,Quadrant (FIG. 5b),[3],Q4
CN(N=O)C(=O)N[C@@H](C=O)[C@@H](O)[C@H](O)[C@H](O)CO [Streptozocin],inhibition at 10 µM,[1],-30%
same,inhibition at 10 µM,[2]; [8],19%
same,Quadrant (FIG. 5b),[3],Q4
Cc1cc(NS(=O)(=O)c2ccc(N)cc2)no1 [Sulfamethoxazole],inhibition at 10 µM,[1],-17%
same,inhibition at 10 µM,[2]; [8],17%
same,Quadrant (FIG. 5b),[3],Q4
Nc1ccc(S(N)(=O)=O)cc1 [Sulfanilamide],inhibition at 10 µM,[1],-14%
same,inhibition at 10 µM,[2]; [8],11%
same,Quadrant (FIG. 5b),[3],Q4
CC/C(=C(\c1ccccc1)c1ccc(OCCN(C)C)cc1)c1ccccc1 [Tamoxifen],inhibition at 10 µM,[1],14%
same,inhibition at 10 µM,[2]; [8],5%
same,Quadrant (FIG. 5b),[3],Q4
CC(C)(C)c1ccc(C(O)CCCN2CCC(C(O)(c3ccccc3)c3ccccc3)CC2)cc1 (stereo not drawn) [Terfenadine],inhibition at 10 µM,[1],19%
same,inhibition at 10 µM,[2]; [8],7%
same,Quadrant (FIG. 5b),[3],Q4
CCC(=O)O[C@H]1CC[C@H]2[C@@H]3CCC4=CC(=O)CC[C@]4(C)[C@H]3CC[C@]12C [Testosterone Propionate],inhibition at 10 µM,[1]; [9],21%
same,inhibition at 10 µM,[2]; [10],8%
same,Quadrant (FIG. 5b),[3]; [11],Q4
C[C@]12CC[C@H]3[C@@H](CCC4=CC(=O)CC[C@@]43C)[C@@H]1CC[C@@H]2O [Testosterone],inhibition at 10 µM,[1],-1%
same,inhibition at 10 µM,[2]; [8],5%
same,Quadrant (FIG. 5b),[3],Q4
Nc1nc2nc[nH]c2c(=S)[nH]1 [Tioguanine],inhibition at 10 µM,[1],12%
same,inhibition at 10 µM,[2]; [8],18%
same,Quadrant (FIG. 5b),[3],Q4
CCC1=C[C@@H]2CN(C1)Cc1c([nH]c3ccccc13)[C@@](C(=O)OC)(c1cc3c(cc1OC)N(C)[C@H]1[C@@](O)(C(=O)OC)[C@H](OC(C)=O)[C@]4(CC)C=CCN5CC[C@]31[C@@H]54)C2 [Vinorelbine],inhibition at 10 µM,[1]; [9],-12%
same,inhibition at 10 µM,"[1]; primary microglia HTS, fibrin stimulation, compounds at 10 μM",108%
same,inhibition at 10 µM,[2]; [10],-11%
same,inhibition at 10 µM,"[2]; Rattus norvegicus, Microglia, primary microglia HTS, LPS stimulation, compounds at 10 μM; read-out: LPS % inhibition",106%
same,Quadrant (FIG. 5b),[3]; [11],Q4
same,Quadrant (FIG. 5b),"[3]; quadrant by fibrin and LPS inhibition, HTS at 10 μM",Q2
O=C1O[C@H]([C@@H](O)CO)C(O)=C1O [Vitamin C],Fibrin % inhibition,[1]; [9],−28%
same,LPS % inhibition,"[2]; primary microglia HTS, 10 μM, LPS-stimulated, cell size >800 μm^2 as marker of activation",18%
same,Quadrant (FIG. 5b),[3]; [11],Q4
